This experiment has as its system epithelial cells and mesenchymal cells (hair follicle germ). Description: co-culture of epithelial cells and mesenchymal cells in culture solution with dispersed additive; formation of hair shaft-like structure in hair follicle germ. Format: cell-based, C57BL/6 mouse. The following applies: for formation of hair follicle germ having a hair shaft-like structure: up to day 8 of culture. On the procedure:
A dorsal skin tissue was collected from a C57BL/6 mouse embryo at embryonic day 18, and was subjected to dispase treatment by a partially modified version of a method reported by […]. (Koh-ei Toyoshima et al. Nature Communications, 3, 784, 2012) at 4° C. under the shaking condition of 30 rpm for 1 hour to separate the epithelial layer and mesenchymal layer of the skin tissue. After that, the epithelial layer was treated with 100 U/mL collagenase for 1 hour and 20 minutes and further treated with trypsin for 10 minutes to isolate epithelial cells. In addition, the mesenchymal layer was treated with 100 U/mL collagenase for 1 hour and 20 minutes to isolate mesenchymal cells.
In example 1-1, the epithelial cells and the mesenchymal cells were co-cultured using a culture solution containing laminin, entactin, and type IV collagen. First, DMEM/F12 medium (Advanced Dulbecco's Modified Eagle Medi um/Ham's F-12, GIBCO® containing 1% GLUTAMAX® Supplement (L-glutamine supplement in […], GIBCO® and 0.2% NORMOCIN® (antimicrobial agent, INVIVOGEN®) was prepared as the culture solution.
Then, the epithelial cells and the mesenchymal cells in such amounts as to achieve a cell density of 5×10^3 cells/mL each (such amounts as to achieve a total cell density of 1×10^4 cells/mL) were suspended in the culture solution, and MATRIGEL® (MATRIGEL® Basement Membrane Matrix, CORNING®) in such an amount as to achieve a concentration of 1 v/v % was further added to prepare a cell suspension.
The Matrigel product used contained 10.6 mg/mL (protein amount measured by the Lowry method) of a soluble basement membrane matrix extracted from an Engelbreth-Holm-Swarm (EHS) mouse tumor, and a compositional ratio in the basement membrane matrix was as follows: 56% of laminin, 8% of entactin, and 31% of type IV collagen.
100 μL of the cell suspension was placed in each well of a 96-well plate (Prime surface (trademark), Sumitomo Bakelite Co., Ltd.) to inoculate the epithelial cells and the mesenchymal cells. […]

In the case of laminin, the “formation of hair shaft-like structure in hair follicle germ” value (1 v/v % of product at inoculation, day 8 of culture (examples 5-1, 5-2, 5-3, 6)) is listed as “had no hair shaft-like structure formed therein”. For the same substance, the “formation of hair follicle germ having a hair shaft-like structure” value is recorded as “a hair follicle germ having a hair shaft-like structure was not formed” (example C1-1: 5 v/v % of product (39 to 41 μg/mL laminin)) and “a hair follicle germ having a hair shaft-like structure was not formed” (example C1-2: 10 v/v % of product (78 to 82 μg/mL laminin)).

The values above are taken from US12655387B2, “Hair follicle primordia and method for producing same” (National University Corporation Yokohama National University, priority 2019, dated 2026).
